Data: patent publication US10155740B2 (F.I.S.—FABBRICA ITALIANA SINTETICI S.P.A., priority 2016, dated 2018)
Entries after “also recorded” stand apart in the source; their conditions may differ. Where two headings read alike, the source gives them in different places.

What was measured:
[1] = Preliminary solubility study of Pomalidomide Form O in a range of solvents; format: physicochemical; conditions: for solubility: thermodynamic from solid
Procedure: A preliminary study of the solubility of Pomalidomide Form O was performed in a range of solvents and under the operating conditions given in the following table 5: […]

[2] = 37° C., cited from earlier work
[3] = pH 1.2, 4.5 and 6.8, cited from earlier work
[4] = cited from earlier work
[5] = Moisture stability test of Form M (RH 100%, XRPD); format: physicochemical; conditions: 100% relative humidity, one night, room temperature
Procedure: Pomalidomide Form M was subjected to a moisture stability test. 100 mg of Pomalidomide Form M, prepared as described above, were maintained for one night at 100% relative humidity (RH 100%), at room temperature and analyzed by XRPD.

[6] = Relative stability of crystal forms from preparation tests by suspension in solvent; format: physicochemical; conditions: suspension in solvent (slurrying) tests
Procedure: The crystal form of Pomalidomide, named Form M, can be prepared by suspension of the form O under stirring for a night in isopropanol (slurrying) after seeding with Form B.
An alternative method for the preparation of Form M prescribes suspending the form O under stirring for four days (slurrying) in dioxane and seeding with Form A, as described in the present experimental part.
1 g of Pomalidomide Form O prepared as in Example 1, was suspended in 20 ml of isopropanol, seeded with crystals of Pomalidomide Form B and stirred overnight at room temperature, giving after filtration and drying, the new Pomalidomide Form M as crystalline powder.

## Nc1cccc2c1C(=O)N(C1CCC(=O)NC1=O)C2=O (racemic) [Pomalidomide Form O]
[1]; RT
  solubility in AcOiBu: >80 vol RT;
  solubility in Anisole: >80 vol. RT;
  solubility in CHCl3: >80 vol. RT;
  solubility in DMF: 26 vol.
  solubility in DMSO: 6 vol.
  solubility in Dioxane: >80 vol. RT
  solubility in Et2O: >80 vol. RT;
  solubility in MIBK: >80 vol. RT;
  solubility in MeNO2: >80 vol. RT;
  solubility in NMP: 8 vol.
[1]; ethanol, organic solvent or mixture, RT, read-out: solubility in EtOH
  solubility: < 1000 µg/mL
[1]; reflux
  solubility in AcOiBu: >80 vol.
  solubility in Anisole: >80 vol.
  solubility in CHCl3: >80 vol.
  solubility in Dioxane: <80 vol.
  solubility in Et2O: >80 vol.
  solubility in MIBK: >80 vol.
  solubility in MeNO2: <80 vol. reflux
[1]; water, RT, read-out: solubility in H2O
  solubility: < 1000 µg/mL

## Nc1cccc2c1C(=O)N(C1CCC(=O)NC1=O)C2=O (racemic) [Pomalidomide, (R,S)-4-Amino-2-(2,6-dioxo-3-piperidinyl)-isoindol-1,3-dione]
[2]; pH 1.2 (0.05N HCl)
  Pomalidomide solubility after 24 hours: 15.0 µg/mL
[2]; pH 4.5 (0.05M acetato)
  Pomalidomide solubility after 24 hours: 14.6 µg/mL
[2]; pH 6.8 (0.05M fosfato)
  Pomalidomide solubility after 24 hours: 13.2 µg/mL
[3]; clinical dose of 4 mg
  solubility of dose in 250 ml of aqueous medium: is not
[3]; dose of 2 mg
  solubility of dose in 250 ml of aqueous medium: soluble
[4]; absolute ethanol, ethyl acetate, heptane, methanol, 2-propanol, toluene
  solubility in organic solvents: very slightly soluble
[4]; acetone, acetonitrile, methylene chloride, methyl ethyl ketone, THF
  solubility in organic solvents: slightly soluble

## Nc1cccc2c1C(=O)N(C1CCC(=O)NC1=O)C2=O (stereo not shown) [Pomalidomide Form M]
[5]
  hygroscopicity / water take-up: did not take-up any water; also recorded: non-hygroscopic
[6]
  relative stability of crystal form: higher stability than both Form B and Form O
